According to patent publication US20230104936A1, “TRPML MODULATORS” (Casma Therapeutics, Inc., priority 2019, published 2023):

System: TFEB
Assay: TFEB nuclear translocation assay, HeLa wt cells
Format: cell-based
Conditions: 2 hrs compound treatment, Table 1 does not say HeLa wt or TRPML1 KO
Summary of the method: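 TFEB translocation into the nucleus of HeLa wt cells is scored by high-content immunofluorescence after 2 hrs of compound treatment at 37° C, reported as AC50.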

Row | SMILES | AC50 (Homo sapiens, HeLa, 2 h) [nM] | AC50 [nM]
1 | O=S(=O)(Nc1cc(Cl)ccc1N1CCCC2(COC2)C1)c1ccc2c(c1)CCC2 [Compound A-345, N-(5-chloro-2-{2-oxa-6-azaspiro[3.5]nonan-6-yl}phenyl)-2,3-dihydro-1H-indene-5-sulfonamide] | 2010 to 8000 | 
2 | CN(C)S(=O)(=O)c1ccc(S(=O)(=O)Nc2ccccc2N2CCN(C(c3ccccc3)C(F)(F)F)CC2)cc1 (stereo not drawn) [Compound A-545, N1,N1-dimethyl-N4-{2-[4-(2,2,2-trifluoro-1-phenylethyl)piperazin-1-yl]phenyl}benzene-1,4-disulfonamide] | ≤ 2000 | 
3 | CC(C)C(=O)N1CCN(c2ccccc2NS(=O)(=O)c2ccc(S(=O)(=O)N(C)C)cc2)CC1 [Compound A-322, N1,N1-dimethyl-N4-{2-[4-(2-methylpropanoyl)piperazin-1-yl]phenyl}benzene-1,4-disulfonamide] | 8010 to 9990 | 
4 | C[C@@H]1CN(CC2CCN(c3c(F)cccc3NS(=O)(=O)c3ccc(S(C)(=O)=O)cc3)CC2)C[C@H](C)O1 [Compound A-776, N-[2-(4-{[(2R,6S)-2,6-dimethylmorpholin-4-yl]methyl}piperidin-1-yl)-3-fluorophenyl]-4-methanesulfonylbenzene-1-sulfonamide] | ≤ 2000 | 
5 | Cc1nc2ccc(S(=O)(=O)Nc3ccccc3N3CCN(C(=O)C(C)(C)C)CC3)cc2s1 [Compound A-600, N-{2-[4-(2,2-dimethylpropanoyl)piperazin-1-yl]phenyl}-2-methyl-1,3-benzothiazole-6-sulfonamide] | ≥ 10000 | 
6 | Cc1nc(C2CC2)sc1S(=O)(=O)Nc1ccccc1N1CCC(CN2C[C@@H](C)O[C@@H](C)C2)CC1 [Compound A-768, 2-cyclopropyl-N-[2-(4-{[(2R,6S)-2,6-dimethylmorpholin-4-yl]methyl}piperidin-1-yl)phenyl]-4-methyl-1,3-thiazole-5-sulfonamide] | ≤ 2000 | 
7 | CC1(C)CC2(CCN(c3ccccc3NS(=O)(=O)c3cccc(C4OCCO4)c3)CC2)CO1 [Compound A-670, N-(2-{3,3-dimethyl-2-oxa-8-azaspiro[4.5]decan-8-yl}phenyl)-3-(1,3-dioxolan-2-yl)benzene-1-sulfonamide] | 2010 to 8000 | 
8 | O=S(=O)(Nc1ccccc1N1CCC(c2ccc(F)cc2F)CC1)c1ccc(S(=O)(=O)C(F)(F)F)cc1 [Compound A-173, N-{2-[4-(2,4-difluorophenyl)piperidin-1-yl]phenyl}-4-trifluoromethanesulfonylbenzene-1-sulfonamide] | ≤ 2000 | 
9 | C[C@H]1COC[C@H](C)N1CC1CCN(c2c(F)cccc2NS(=O)(=O)c2ccc(S(=N)(=O)N(C)C)cc2)CC1 (stereo partly drawn) [Compound A-840, N-(2-(4-(((3S,5S)-3,5-dimethylmorpholino)methyl)piperidin-1-yl)-3-fluorophenyl)-4-(N,N-dimethylsulfamidimidoyl)benzenesulfonamide] |  | ≤ 2000
10 | COCC1(C)CCN(c2ccccc2NS(=O)(=O)c2ccc(C3CC3)cc2)CC1 [Compound A-621, 4-cyclopropyl-N-{2-[4-(methoxymethyl)-4-methylpiperidin-1-yl]phenyl}benzene-1-sulfonamide] | ≤ 2000 | 
11 | CC(C)C(=O)c1ccc(S(=O)(=O)Nc2ccccc2N2CCC3(CC2)COC(C)(C)C3)cc1 [Compound A-657, N-(2-{3,3-dimethyl-2-oxa-8-azaspiro[4.5]decan-8-yl}phenyl)-4-(2-methylpropanoyl)benzene-1-sulfonamide] | 8010 to 9990 | 
12 | Cn1cc(S(=O)(=O)Nc2ccccc2N2CCN(c3ccc(Cl)cc3F)CC2)cn1 [Compound A-6, N-{2-[4-(4-chloro-2-fluorophenyl)piperazin-1-yl]phenyl}-1-methyl-1H-pyrazole-4-sulfonamide] | ≥ 10000 | 
13 | COCC1(C)CCN(c2ccccc2NC(C)c2ccc(S(=O)(=O)N(C)C)cc2)CC1 (stereo not drawn) [Compound A-490, 4-[1-({2-[4-(methoxymethyl)-4-methylpiperidin-1-yl]phenyl}amino)ethyl]-N,N-dimethylbenzene-1-sulfonamide] | ≥ 10000 | 
14 | CS(=O)(=O)c1ccc(S(=O)(=O)Nc2cccc(Cl)c2N2CCOCC2)cc1 [Compound A-275, N-[3-chloro-2-(morpholin-4-yl)phenyl]-4-methanesulfonylbenzene-1-sulfonamide] | ≥ 10000 | 
15 | CN(C)S(=O)(=O)c1ccc(S(=O)(=O)N2CCN(C3CCN(c4ccc(Cl)cc4F)CC3)C2=O)cc1 [Compound A-86, 4-((3-(1-(4-chloro-2-fluorophenyl)piperidin-4-yl)-2-oxoimidazolidin-1-yl)sulfonyl)-N,N-dimethylbenzenesulfonamide] | ≥ 10000 | 
16 | CC1(C)CC2(CCN(c3ccccc3NS(=O)(=O)c3cnn(C4CCC4)c3)CC2)CO1 [Compound A-666, 1-cyclobutyl-N-(2-{3,3-dimethyl-2-oxa-8-azaspiro[4.5]decan-8-yl}phenyl)-1H-pyrazole-4-sulfonamide] | 2010 to 8000 | 
17 | Cc1ccc(S(=O)(=O)Nc2ccccc2N2[C@@H]3CC[C@H]2C[C@@H](c2ccccc2F)C3)cc1 [Compound A-120, N-{2-[(1R,3R,5S)-3-(2-fluorophenyl)-8-azabicyclo[3.2.1]octan-8-yl]phenyl}-4-methylbenzene-1-sulfonamide] | ≤ 2000 | 

Row | SMILES | AC50 (Homo sapiens, HeLa, 2 h) [nM] | AC50 [nM]
18 | Cc1ccc(S(=O)(=O)Nc2cccc(F)c2N2CCC(CN3C[C@@H](C)O[C@@H](C)C3)CC2)cc1 [Compound A-771, N-[2-(4-{[(2R,6S)-2,6-dimethylmorpholin-4-yl]methyl}piperidin-1-yl)-3-fluorophenyl]-4-methylbenzene-1-sulfonamide] | ≤ 2000 | 
19 | CC1(C)CC2(CCN(c3ccccc3NS(=O)(=O)c3ccc4c(c3)CC(C)(C)C4=O)CC2)CO1 [Compound A-638, N-(2-{3,3-dimethyl-2-oxa-8-azaspiro[4.5]decan-8-yl}phenyl)-2,2-dimethyl-1-oxo-2,3-dihydro-1H-indene-5-sulfonamide] | 2010 to 8000 | 
20 | CN(C(=O)C1CCN(c2ccccc2NS(=O)(=O)c2ccc(S(=O)(=O)N(C)C)cc2)CC1)c1ccccc1 [Compound A-339, 1-{2-[4-(dimethylsulfamoyl)benzenesulfonamido]phenyl}-N-methyl-N-phenylpiperidine-4-carboxamide] | 2010 to 8000 | 
21 | CN(C)S(=O)(=O)c1ccc(S(=O)(=O)Nc2ccccc2N2CCC(N)(c3ccc(Cl)cc3F)CC2)cc1 [Compound A-150, N4-{2-[4-amino-4-(4-chloro-2-fluorophenyl)piperidin-1-yl]phenyl}-N1,N1-dimethylbenzene-1,4-disulfonamide] | ≤ 2000 | 
22 | CC(c1cccc(F)c1N1CCC(CN2C3CCC2COC3)CC1)S(=O)(=O)c1ccc(S(=O)(=O)N(C)C)cc1 (stereo not drawn) [Compound A-855, 4-((1-(2-(4-((3-oxa-8-azabicyclo[3.2.1]octan-8-yl)methyl)piperidin-1-yl)-3-fluorophenyl)ethyl)sulfonyl)-N,N-dimethylbenzenesulfonamide] |  | 2010 to 8000
23 | Cc1nn(C)c(C2CCN(c3ccc(Cl)cc3F)CC2)c1NS(=O)(=O)c1ccc(S(=O)(=O)N(C)C)cc1 [Compound A-33, N1-(5-(1-(4-chloro-2-fluorophenyl)piperidin-4-yl)-1,3-dimethyl-1H-pyrazol-4-yl)-N4,N4-dimethylbenzene-1,4-disulfonamide] | ≥ 10000 | 
24 | CN(C(=O)C1CCN(c2ccccc2NS(=O)(=O)c2ccc(S(=O)(=O)N(C)C)cc2)CC1)C(C)(C)C [Compound A-359, N-tert-butyl-1-{2-[4-(dimethylsulfamoyl)benzenesulfonamido]phenyl}-N-methylpiperidine-4-carboxamide] | ≤ 2000 | 
25 | COc1ccc(S(=O)(=O)Nc2ccccc2N2CCC(c3ncc(Cl)cc3F)CC2)cc1 [Compound A-147, N-{2-[4-(5-chloro-3-fluoropyridin-2-yl)piperidin-1-yl]phenyl}-4-methoxybenzene-1-sulfonamide] | 2010 to 8000 | 
26 | Cc1ccc(S(=O)(=O)Nc2ccccc2N2CCC3(CC2)CN(C)c2cc(F)ccc23)cc1 [Compound A-245, N-(2-{6-fluoro-1-methyl-1,2-dihydrospiro[indole-3,4′-piperidin]-1′-yl}phenyl)-4-methylbenzene-1-sulfonamide] | ≤ 2000 | 
27 | CN(C)S(=O)(=O)c1ccc(S(=O)(=O)Nc2ccccc2N2CCC(CN3CCOCC3)CC2)cc1 [Compound A-554, N1,N1-dimethyl-N4-(2-{4-[(morpholin-4-yl)methyl]piperidin-1-yl}phenyl)benzene-1,4-disulfonamide] | ≤ 2000 | 
28 | CN(C)S(=O)(=O)c1ccc(S(=O)(=O)N(C)c2ccc(F)cc2N2CCC3(CC2)COC(C)(C)C3)cc1 [Compound A-729, N1-(2-{3,3-dimethyl-2-oxa-8-azaspiro[4.5]decan-8-yl}-4-fluorophenyl)-N1,N4,N4-trimethylbenzene-1,4-disulfonamide] | 2010 to 8000 | 
29 | C[C@H]1CN(CC2CCN(c3c(F)cccc3NS(=O)(=O)c3ccc(S(=O)(=O)N(C)C)cc3)CC2)C[C@H](C)O1 (racemic) [Compound A-843, rel-N1-(2-(4-((2,6-dimethylmorpholino)methyl)piperidin-1-yl)-3-fluorophenyl)-N4,N4-dimethylbenzene-1,4-disulfonamide] | ≤ 2000 | 
30 | O=S(=O)(Nc1cccc(Cl)c1N1CCN(c2ccc(Cl)cc2F)CC1)c1ccc2c(c1)CCC2 [Compound A-288, N-{3-chloro-2-[4-(4-chloro-2-fluorophenyl)piperazin-1-yl]phenyl}-2,3-dihydro-1H-indene-5-sulfonamide] | ≤ 2000 | 
31 | CN(C)S(=O)(=O)c1ccc(S(=O)(=O)Nc2ccccc2N2CCN(C(=O)N3CC4CC3C4)CC2)cc1 [Compound A-447] | 2010 to 8000 | 
32 | CC(C)(C)C(=O)N1CCN(c2ccccc2NS(=O)(=O)C2CCc3ccccc3C2)CC1 (stereo not drawn) [Compound A-583, N-{2-[4-(2,2-dimethylpropanoyl)piperazin-1-yl]phenyl}-1,2,3,4-tetrahydronaphthalene-2-sulfonamide] | ≥ 10000 | 
33 | CN(C)S(=O)(=O)c1ccc(S(=O)(=O)Nc2ccccc2N2CCN(C(=O)C3(C)CCCCO3)CC2)cc1 (stereo not drawn) [Compound A-448, N1,N1-dimethyl-N4-{2-[4-(2-methyloxane-2-carbonyl)piperazin-1-yl]phenyl}benzene-1,4-disulfonamide] | ≤ 2000 | 
